Source: ChEMBL document CHEMBL4619780, “Structure-Activity Relationship Studies of Retro-1 Analogues against Shiga Toxin” (J Med Chem, 2020)

Assay: cells
Assay type: cell-based
Details: Escherichia coli, HeLa

Row | Structure (SMILES) | EC50 [µM]
1 | C[C@H]1CCC/C=C/[C@@H]2C[C@H](O)C[C@H]2[C@H](O)/C=C/C(=O)O1 [BREFELDIN A] | 5

Assay: cells
Assay type: cell-based
Details: Escherichia coli, HeLa
Remark: another data set of the same source

Row | Structure (SMILES) | EC50 [µM]
2 | CCC(=O)N1CC(=O)Nc2ccc(Br)cc2C1c1ccccc1 (racemic) | 6.2
3 | Cc1ccc(C2Nc3ccccc3C(=O)N2c2ccccc2)s1 (configuration not stated) | 27.3

Assay: Inhibition of Escherichia coli shiga toxin
Details: not given

Row | Structure (SMILES) | EC50 [µM]
4 | Cc1cccc(C)c1Nc1c(-c2cc(Br)ccc2O)nc2[nH]cnn12 | 25
5 | O=[N+]([O-])c1ccc(CSc2ncnc3c2ncn3[C@@H]2O[C@H](CO)[C@@H](O)[C@H]2O)cc1 [NITROBENZYLMERCAPTOPURINE RIBONUCLEOSIDE] | 25 to 100
6 | CC1(C)CC(/C=C/c2ccccc2)=Nc2ccccc2N1 | 50
7 | CC/C(=C(\c1ccccc1)c1ccc(OCCN(C)C)cc1)c1ccccc1 [TAMOXIFEN] | 2 to 10

Assay: cells
Assay type: cell-based
Details: Escherichia coli, HeLa
Remark: another data set of the same source

Row | Structure (SMILES) | EC50 [µM]
8 | CCCN1CC(=O)Nc2ccc(I)cc2C1c1ccccc1 (configuration not stated) | 1.98
9 | CCCN1CC(=O)Nc2ccc(Br)cc2C1c1ccccc1 (configuration not stated) | 3.98
10 | O=C1CN(C2CCCC2)[C@H](c2ccccc2)c2cc(I)ccc2N1 | 0.09
11 | O=C1CN(C2CCCC2)C(c2ccccc2)c2cc(Cl)ccc2N1 (configuration not stated) | 0.844
12 | CCCN1CC(=O)Nc2ccc(Br)cc2C1c1ccccc1F (configuration not stated) | 3.87
13 | CCCN1CC(=O)Nc2ccc(N=[N+]=[N-])cc2C1c1ccccc1 (configuration not stated) | 11.1
14 | CCCN1CC(=O)Nc2ccc(Br)cc2C1c1ccc(F)cc1F (configuration not stated) | 12.8
15 | CCCN1CC(=O)Nc2ccc(Cl)cc2C1c1ccccc1 (configuration not stated) | 12.8
16 | CC1CCC(N2CC(=O)Nc3ccc(Br)cc3C2c2ccccc2)C1 (mixture of isomers) | 1.29
17 | O=C1CN(C2CCCC2)C(c2ccccc2)c2cc(F)ccc2N1 (configuration not stated) | 2.29
18 | O=C1CN(C2CCCC2)C(c2ccccc2)c2ccccc2N1 (configuration not stated) | 6.11
19 | CC(C1CC1)N1CC(=O)Nc2ccc(Br)cc2C1c1ccccc1 (mixture of isomers) | 5.16
20 | CC1CCCC1N1CC(=O)Nc2ccc(Br)cc2C1c1ccccc1 (mixture of isomers) | 3.91
21 | O=C1CN(C2CCCCC2)C(c2ccccc2)c2cc(Br)ccc2N1 (configuration not stated) | 4.7
22 | O=C1CN(C2CCCC2)C(c2ccccc2)c2cc(I)ccc2N1 (racemic) | 0.281
23 | C#CCCN1CC(=O)Nc2ccc(Br)cc2C1c1ccccc1 (configuration not stated) | 6.5
24 | O=C1CN(C2CCCC2)C(c2ccccc2)c2cc(Br)ccc2N1 (configuration not stated) | 0.6
25 | CCN1CC(=O)Nc2ccc(Br)cc2C1c1ccccc1 (configuration not stated) | 8.81
26 | CCCC(=O)N1CC(=O)Nc2ccc(Br)cc2C1c1ccccc1 (configuration not stated) | 10.9

Assay: cells
Assay type: cell-based
Details: Escherichia coli, HeLa
Remark: another data set of the same source

Row | Structure (SMILES) | EC50 [µM]
27 | CC[C@@H](C(=O)[C@@H](C)[C@@H](O)[C@H](C)CCc1ccc(C)c(O)c1C(=O)O)[C@H]1O[C@](CC)([C@H]2CC[C@](O)(CC)[C@H](C)O2)C[C@@H]1C [LASALOCID] | 2
